# Measured values: patent US6864086B2, “Nitric oxide-scavenging system for culturing oocytes, embryos, or other cells” (Board of Supervisors of Louisiana State University and …, priority 1998, dated 2005)
# “And” between values parts separate entries of the source, which are not always exact repeats. Equal entries are not always repeated.
# Test system: bovine embryos
# Test: Example 9: L-NAME (1 or 1000 nM) added to mBECM containing serum and Hb, pre-hatching development
# Assay type: cell-based
# Set-up: key to Least square mean of embryos developed to 16-cell / Least square mean of embryos developed to Blastocyst / Least square mean of embryos developed to 2-cell / Least square mean of embryos developed to 8-cell / Least square mean of embryos developed to Morula: fraction developed; each embryo scored 1 = developed, 0 = not developed
# Conditions: Hb 1 μg/ml, no L-NAME
# Protocol: The basic medium used for maturation of oocytes was tissue culture medium (TCM)-199 with Earle's salts, buffered with 25 mM HEPES (Gibco BRL, Grand Island, N.Y.) and supplemented with 10% (v/v) heat-inactivated fetal bovine serum (FBS; Hyclone Laboratories, Logan, Utah), 1 μg/ml estradiol-17β (NOBL Laboratories, Sioux Center, Iowa), 3 μg/ml bovine FSH (NOBL Laboratories), 6 μg/ml bovine LH (NOBL Laboratories), and 25 μg/ml gentamycin (Sigma Chemical Co., St. Louis, Mo.). The basic medium used for treatment of spermatozoa and fertilization of oocytes was a modified Tyrode's medium (J. Parrish et al., Capacitation of bovine sperm by heparin. Biol. Reprod. 38:1171-1180 (1988)), supplemented with 0.25 mM sodium pyruvate (Gibco BRL), 6 mg/ml fatty acid (FA)-free BSA (No. A-6003, Sigma), 15 μg/ml calcium heparin from porcine intestinal mucosa (183 USP/mg; H-8398, Sigma), and 25 μg/ml gentamycin. Modified bovine embryo culture medium (mBECM) containing 10 μM β-mercaptoethanol was used for culture of embryos, as described in J. Lim et al., “Roles of growth factors in the development of bovine embryos fertilized in vitro and cultured singly in a defined medium,” Reprod. Fertil. Dev., 8:1199-1205 (1996). mBECM supplemented with 10% (v/v) FBS was used for co-culturing inseminated oocytes with CGC. Osmolarity of the medium was maintained within the range of 265-290 mOsm.
# All cumulus-oocyte complexes (COC) were collected in Madison, Wis. (BOMED, Inc.) and were shipped in 2 ml of maturation medium in a battery powered incubator via overnight express mail service. Oocytes matured during transit and arrived within 24 h after exposure to maturation medium, pre-equilibrated at 39° C. in 5% CO2 in air. At 22 to 24 h after exposure to the medium, the COCs were inseminated in vitro as described in J. Lim et al., “Intracytoplasmic glutathione concentration and the role of β-mercaptoethanol in preimplantation development of bovine embryos,” Theriogenology, 46:429-439 (1996). At 18 h post-insemination, COCs were cultured in groups (28-40 embryos) in a 4-well multidish (Nunc, Roskilde, Denmark) containing 0.8-ml of mBECM. Embryos were dislodged from CGC at 36 to 48 h post-insemination.
# In Example 9, IVF embryos were cultured in MBECM supplemented as follows: 1) no addition (control), 2) Hb (1 μg/ml), 3) Hb plus L-NAME (1 nM), and 4) Hb plus L-NAME (1000 nM). Embryonic development was evaluated up to 192 h post-insemination. A total of 384 oocytes were inseminated, and were randomly and equally allotted to 4 replicates.
# Embryos developed to the 2-cell, 8-cell, 16-cell, morula, and blastocyst stages at the pertinent observation times were individually scored ‘1’ (developed). Embryos that had not developed to these stages at the same times were scored ‘0’ (non-developed). Sums of the scores at each stage of development were evaluated by analysis of variance using a general linear model (PROC-GLM) in the SAS statistical programming package (1991). In Example 8, the combined effects of Hb addition and month of oocyte collection were first examined in a 2×7 factorial arrangement. Overall differences in embryonic development in Hb-free and Hb-containing culture systems were further evaluated. […] Differences were regarded as statistically significant where P values were less than 0.05.
substance,measurement,setting,value
hemoglobin [Hb],Number of embryos developed to 2-cell,"96 embryos, 48 h",68
same,Number of embryos developed to 8-cell,"96 embryos, 60 h",54
same,Number of embryos developed to 16-cell,"96 embryos, 120 h",47
same,Number of embryos developed to Morula,"96 embryos, 144 h",35
same,Number of embryos developed to Blastocyst,"96 embryos, 192 h",30
same,Least square mean of embryos developed to 2-cell,48 h,0.708
same,Least square mean of embryos developed to 8-cell,60 h,0.563
same,Least square mean of embryos developed to 16-cell,120 h,0.489
same,Least square mean of embryos developed to Morula,144 h,0.365
same,Least square mean of embryos developed to Blastocyst,192 h,0.312 and 0.313
